Laboratory results taken from paper PMC12017303 (Science Advances, 2025).

Key:
[1] = tested on: SARS-CoV-2 Beta variant; conditions: mouse, in vivo
[2] = tested on: SARS-CoV-2 variants WA1, XBB.1.5, XBB.1.16, and EG.5.1; assay: microbe, parasite or virus in culture; type: cell-based; conditions: Severe acute respiratory syndrome coronavirus 2, read-out: EC50 range against all viruses tested

SMILES	IC50 for decrease in lung virus replication [1] [mg/kg]	SARS-CoV-2 N protein in lung (immunohistochemistry) [1]	mononuclear cell infiltration and respiratory epithelial cell injury in lung [1]	reduction in viral load compared to the ensitrelvir-treated arm [1] [log]	reduction in viral load compared to vehicle-treated animals [1]	reduction in viral titers [1]	viral titers after three doses, result in words [1]	reduction in virus replication compared to the vehicle (plaque assay) [1] [log]	EC50 [2] [nM]
C#CCn1c(C)c(-n2nnc3ccccc32)c(=O)n(-c2cncc3ccccc23)c1=O [AVI-4516]	14.7	minimal or no viral protein present	notably absent	–	–	–	–	–	–
C#CCn1c(C)c(-n2nnc3cc(F)c(F)cc32)c(=O)n(-c2cncc3ccccc23)c1=O [AVI-4773]	–	–	–	> 3	~ 6 log	> 1,000,000	below detectable levels	–	–
CC(C)(C)[C@H](NC(=O)C(F)(F)F)C(=O)N1C[C@H]2[C@@H]([C@H]1C(=O)N[C@H](C#N)C[C@@H]1CCNC1=O)C2(C)C [nirmatrelvir, reference compound]	–	minimal or no viral protein present	–	–	–	–	–	2	21 to 67
